Experimental findings from patent US5162361A, “Method of treating diseases associated with elevated levels of interleukin 1” (priority 1990, dated 1992) are described below.

The subject of one test is IL-1α mRNA. Nature of the test: Northern blot analysis of IL-1α mRNA expression. It counts as cell-based, rat. Particulars: 10 μM pentamidine, LPS, 3 h, FIG. 2. Here is the method: Specific transcription of IL-1α mRNA synthesis was assessed by incubating cells with and without 10 μM pentamidine or 1 μM of the corticosteroid, dexamethasone in the presence or absence of lipopolysaccharide (LPS). At the end of a 3 hour incubation period, the cells were lysed and the total cellular RNA was collected, blotted onto a nitrocellulose filter and probed with ^32 P-labeled IL-1α cDNA. […] In contrast, mRNA for IL-1α was not seen in dexamethasone treated cells.
For determination of IL-1 mRNA levels, cells (4×10^6) were cultured with or without pentamidine (10 μM) or dexamethasone (1 μM) in media with 10% FCS in the presence or absence of LPS (1 μg/ml) for 3 hours. Total cellular RNA was isolated by quanidinium-thiocyanate phenolchloroform extraction (P. Chomczynski et al., Anal. Bioch. 162, 156 (1987)). RNA (10 μg) was electrophoresed in 1.2% agarose gels as previously described (H. Leharch et al., Biochemistry 4743 (1977)). […] Hybridizing species were detected by autoradiography at -70° C., using Kodak XAR film with an intensifying screen. The total RNA levels per lane on the gel was assessed by monitoring 28S and 18S, and expression of α-tubulin mRNA. Accumulation of α-tubulin mRNA was determined by probing the same blot with ^32 P labeled 30 mer oligonucleotide (Du Pont).

The next test concerns tumor necrosis factor. Nature of the test: Tumor necrosis factor secretion by human macrophages. It counts as cell-based. The conditions noted are these: Macrophage, 10^-5 M, read-out: Suppression of tumor necrosis factor secretion. An excerpt: It has also been observed that pentamidine (10^-5 M) blocks the secretion of tumor necrosis factor in rat macrophages (42 units/ml - pentamidine vs. 82 units/ml - control), as well as tumor necrosis factor and IL-6 in human macrophages, where at a concentration of 10^-5 M pentamidine, tumor necrosis factor and IL-6 secretion are suppressed >50%. These additional cytokines are also very influential mediators in inflammatory diseases.

Entries after “also recorded” stand apart in the source; their conditions may differ. Bounds are passed on as bounds.

For the molecule `N=C(N)c1ccc(OCCCCCOc2ccc(C(=N)N)cc2)cc1` [Pentamidine, 1,5-bis(4-amidinophenoxy)pentane], in the test on IL-1α mRNA, the “IL-1α mRNA expression” value is “lack of effect on mRNA expression; also recorded: equal amounts of L-1α mRNA”. The inhibition at 10 µM with tumor necrosis factor is above 50%.
